Values joined by “and” are separate entries in the source; they are usually repeats but may differ in a detail not shown here. Identical values can stand only once.
How the values were obtained:
Format in all cases: in vivo, C57BL/6 mice
anti-Aβ IgG antibody [1] = experiment: Example 5: anti-Aβ IgG antibody titer, cysteine at the C-terminal, the N-terminal and both terminals; details: Day 7 from the final 4th immunization; for Antibody titer, Mean: group mean of 4 mice; for Antibody titer: individual animals (No. 1-4), 100 μg/mouse, 2-week intervals, no adjuvant
anti-Aβ IgG antibody [2] = experiment: Example 6: anti-Aβ IgG antibody titer, Aβ peptide sequences with insertion of cysteine; details: Day 7 from the final 4th immunization; for Antibody titer, Mean: group mean of 4 mice; for Antibody titer: individual animals (No. 1-4), 100 μg/mouse, 2-week intervals, no adjuvant
anti-Aβ IgG antibody [3] = experiment: Example 3: anti-Aβ IgG antibody titer, Aβ peptides with addition of cysteine of 26-40 amino acids in length; details: Day 7 from final 3rd immunization; for Antibody titer, Mean: group mean of 4 mice; for Antibody titer: individual animals (No. 1-4), 100 μg/mouse, 3 times at 2-week intervals, no adjuvant
anti-Aβ IgG antibody [4] = experiment: Example 1: anti-Aβ IgG antibody titer in murine serum after immunization with Aβ peptides with and without addition of cysteine
anti-Aβ IgG antibody [5] = experiment: Example 2: anti-Aβ IgG antibody titer, Aβ peptide with cysteine vs carrier-linked Aβ peptide with/without adjuvant; details: Day 7 from final 3rd immunization
anti-Aβ IgG antibody [6] = experiment: Example 4: anti-Aβ IgG antibody titer, Aβ peptides with 0, 1 or 2 molecules of cysteine added
anti-Aβ IgG antibody [7] = experiment: Example 7: anti-Aβ IgG antibody titer, Aβ peptide with cysteine plus exogenous amino acid sequence; details: Day 7 from the final 4th immunization; for Antibody titer, Mean: group mean of 4 mice; for Antibody titer: individual animals (No. 1-4), 100 μg/mouse, 2-week intervals, no adjuvant
anti-Aβ IgG antibody [8] = experiment: Example 10: anti-Aβ IgG antibody titer, Aβ peptide with/without cysteine, with and without adjuvant; details: Day 7 from final 3rd immunization
[9] = group mean of 4 mice, serum, 100 μg/mouse intradermally or subcutaneously, 2-week intervals, no adjuvant

CDAEFRHDSGYEVHHQKLVFFAEDVGSNK [Cys28AA, Peptide with addition of 1 molecule of cysteine at the N-terminal]
Antibody titer, Mean (anti-Aβ IgG antibody [1]): 5891.8 ng/mL
Antibody titer (anti-Aβ IgG antibody [1]; listed as Cys2BAA): 7708 ng/mL and 423 ng/mL and 15328 ng/mL and 108 ng/mL

CDAEFRHDSGYEVHHQKLVFFAEDVGSNKC [Cys28AACys, Peptide with addition of each 1 molecule of cysteine at the C-terminal and the N-terminal]
Antibody titer, Mean (anti-Aβ IgG antibody [1]): 13051.6 ng/mL
Antibody titer (anti-Aβ IgG antibody [1]): 772 ng/mL and 49849 ng/mL and 1537 ng/mL and 48 ng/mL

DAEFRHDCSGYEVHHQKLVFFAEDVGSNK [28AA7Cys, 28-amino acid Aβ peptide with insertion of cysteine after residue 7]
Antibody titer, Mean (anti-Aβ IgG antibody [2]): 23.0 ng/mL
Antibody titer (anti-Aβ IgG antibody [2]): 21 ng/mL and 24 ng/mL and 17 ng/mL and 30 ng/mL

DAEFRHDSGYCEVHHQKLVFFAEDVGSNK [28AA10Cys, 28-amino acid Aβ peptide with insertion of cysteine after residue 10]
Antibody titer, Mean (anti-Aβ IgG antibody [2]): 17.7 ng/mL
Antibody titer (anti-Aβ IgG antibody [2]): 26 ng/mL and 19 ng/mL and 18 ng/mL and 8 ng/mL

DAEFRHDSGYEVHHQKLVCFFAEDVGSNK [28AA18Cys, 28-amino acid Aβ peptide with insertion of cysteine between 18th-19th amino acid residues]
Antibody inducing ability (anti-Aβ IgG antibody [2]): antibody inducing ability was found
Antibody inducing ability as compared to the group administered with 28AACys (anti-Aβ IgG antibody [2]): higher antibody inducing ability
Antibody titer, Mean (anti-Aβ IgG antibody [2]): 611899.2 ng/mL
Antibody titer (anti-Aβ IgG antibody [2]): 2163676 ng/mL and 92083 ng/mL and 54037 ng/mL and 137801 ng/mL

DAEFRHDSGYEVHHQKLVFFAEDVGCSNK [28AA25Cys, Aβ peptide with insertion of cysteine between the 25th and 26th amino acid residues]
Antibody inducing ability (anti-Aβ IgG antibody [2]): antibody inducing ability was found
Antibody titer, Mean (anti-Aβ IgG antibody [2]): 6860.8 ng/mL
Antibody titer (anti-Aβ IgG antibody [2]): 14972 ng/mL and 4721 ng/mL and 4483 ng/mL and 3267 ng/mL

DAEFRHDSGYEVHHQKLVFFAEDVGSC [26AACys, 26-amino acid Aβ peptide with addition of cysteine at the C-terminal]
Antibody titer, Mean (anti-Aβ IgG antibody [3]): 24.5 ng/mL
Antibody titer (anti-Aβ IgG antibody [3]): 39 ng/mL and 19 ng/mL (2×) and 21 ng/mL

DAEFRHDSGYEVHHQKLVFFAEDVGSNC [27AACys, 27-amino acid Aβ peptide with addition of cysteine at the C-terminal]
Antibody titer, Mean (anti-Aβ IgG antibody [3]): 19.0 ng/mL
Antibody titer (anti-Aβ IgG antibody [3]): 15 ng/mL and 19 ng/mL (2×) and 24 ng/mL

DAEFRHDSGYEVHHQKLVFFAEDVGSNKC [28AACys, 28-amino acid Aβ peptide with addition of cysteine]
Increase in the antibody titer with addition of cysteine (anti-Aβ IgG antibody [4]; compared to the same Aβ peptide fragment without addition of cysteine): about 39 fold
Antibody titer, Day 7 from 2nd administration, Mean (anti-Aβ IgG antibody [4]; [9]): 157767.25 ng/mL
Antibody titer, Day 7 from 3rd administration, Mean (anti-Aβ IgG antibody [4]; [9]): 26043.00 ng/mL
Antibody titer, Day 7 from 2nd administration (anti-Aβ IgG antibody [4]; individual animals (No. 1-4), serum, 100 μg/mouse intradermally or subcutaneously, 2-week intervals, no adjuvant): 74096.0 ng/mL and 30542.0 ng/mL and 389239.0 ng/mL and 137192.0 ng/mL
Antibody titer, Day 7 from 3rd administration (anti-Aβ IgG antibody [4]; individual animals (No. 1-4), serum, 100 μg/mouse intradermally or subcutaneously, 3 times at 2-week intervals, no adjuvant): 20265.0 ng/mL and 2337.0 ng/mL and 69198.0 ng/mL and 12372.0 ng/mL
Antibody titer, Mean (anti-Aβ IgG antibody [5]; group mean of 5 mice): 4237.48 ng/mL
Antibody titer (anti-Aβ IgG antibody [5]; individual animals (No. 1-5), primary 100 μg, 2nd and 3rd 50 μg per animal, 2-week intervals): 1714.4 ng/mL and 5949.1 ng/mL and 10122.3 ng/mL and 716.6 ng/mL and 2685.0 ng/mL
Antibody inducing ability against Aβ (anti-Aβ IgG antibody [3]): higher antibody titer
Antibody titer, Mean (anti-Aβ IgG antibody [3]): 51916.1 ng/mL
Antibody titer (anti-Aβ IgG antibody [3]): 3120 ng/mL and 2191 ng/mL and 115618 ng/mL and 86736 ng/mL
Antibody inducing ability (anti-Aβ IgG antibody [6]; 1 vs 2 molecules of cysteine at the C-terminal): almost the same antibody inducing ability
Antibody titer, Mean (anti-Aβ IgG antibody [6]; group mean of 4 mice, Day 7 from the final 4th immunization): 5070.2 ng/mL
Antibody titer (anti-Aβ IgG antibody [6]; individual animals (No. 1-4), Day 7 from the final 4th immunization, 100 μg/mouse, 2-week intervals, no adjuvant): 211 ng/mL and 365 ng/mL and 19578 ng/mL and 127 ng/mL
Antibody titer, Mean (anti-Aβ IgG antibody [1]): 155867.0 ng/mL
Antibody titer (anti-Aβ IgG antibody [1]): 290461 ng/mL and 94 ng/mL and 139927 ng/mL and 192986 ng/mL
Antibody inducing ability (anti-Aβ IgG antibody [2]): antibody inducing ability was found
Antibody titer, Mean (anti-Aβ IgG antibody [2]): 18946.0 ng/mL
Antibody titer (anti-Aβ IgG antibody [2]): 20883 ng/mL and 10503 ng/mL and 38907 ng/mL and 5491 ng/mL
Antibody inducing ability (anti-Aβ IgG antibody [7]): antibody inducing ability was found
Antibody titer, Mean (anti-Aβ IgG antibody [7]): 5070.2 ng/mL
Antibody titer (anti-Aβ IgG antibody [7]): 211 ng/mL and 365 ng/mL and 19578 ng/mL and 127 ng/mL
Antibody titer, Mean (anti-Aβ IgG antibody [8]; group mean of 4 mice): 19243.7 ng/mL
Antibody titer (anti-Aβ IgG antibody [8]; individual animals (No. 1-4), 100 μg Aβ peptide per animal, 3 times at 2-week intervals): 8847 ng/mL and 9458 ng/mL and 10446 ng/mL and 48224 ng/mL

DAEFRHDSGYEVHHQKLVFFAEDVGSNKCEIFEFTTD [Peptide with addition of cysteine at the C-terminal plus an exogenous peptide]
Antibody inducing ability (anti-Aβ IgG antibody [7]): antibody inducing ability was found
Antibody titer, Mean (anti-Aβ IgG antibody [7]): 21099.2 ng/mL
Antibody titer (anti-Aβ IgG antibody [7]): 8196 ng/mL and 28782 ng/mL and 2162 ng/mL and 45257 ng/mL

DAEFRHDSGYEVHHQKLVFFAEDVGSNKCGAIIG [33AA28Cys, Aβ peptide with insertion of cysteine between the 28th and 29th amino acid residues]
Antibody inducing ability (anti-Aβ IgG antibody [2]): antibody inducing ability was found
Antibody titer, Mean (anti-Aβ IgG antibody [2]): 4105.0 ng/mL
Antibody titer (anti-Aβ IgG antibody [2]): 245 ng/mL and 1932 ng/mL and 29 ng/mL and 14214 ng/mL

DAEFRHDSGYEVHHQKLVFFAEDVGSNKCGAIIGLM [35AA28Cys, Aβ peptide with insertion of cysteine between the 28th and 29th amino acid residues]
Antibody inducing ability (anti-Aβ IgG antibody [2]): antibody inducing ability was found
Antibody titer, Mean (anti-Aβ IgG antibody [2]): 6897.5 ng/mL
Antibody titer (anti-Aβ IgG antibody [2]): 1753 ng/mL and 17265 ng/mL and 2103 ng/mL and 6469 ng/mL

DAEFRHDSGYEVHHQKLVFFAEDVGSNKCTTD [28AACysTTD, Peptide with addition of cysteine at the C-terminal plus an exogenous peptide]
Antibody inducing ability (anti-Aβ IgG antibody [7]): antibody inducing ability was found
Antibody titer, Mean (anti-Aβ IgG antibody [7]): 28279.3 ng/mL
Antibody titer (anti-Aβ IgG antibody [7]): 46 ng/mL and 106899 ng/mL and 4316 ng/mL and 1855 ng/mL

Source: patent US8106015B2, “Method for enhancing immune response with peptide” (Juridical Foundation The Chemo-Sero-Therapeutic Research …, priority 2007, dated 2012)
